Data on one compound can be found in US20210002262A1, “CYANOPYRROLIDINES AS USP30 INHIBITORS AND FIBROSIS TREATMENT” (MISSION THERAPEUTICS LIMITED, priority 2018, published 2021).

In one series the target is T1, USP30 (Homo sapiens, UniProt Q70CQ3).
T1 sequence (Q70CQ3 1-517): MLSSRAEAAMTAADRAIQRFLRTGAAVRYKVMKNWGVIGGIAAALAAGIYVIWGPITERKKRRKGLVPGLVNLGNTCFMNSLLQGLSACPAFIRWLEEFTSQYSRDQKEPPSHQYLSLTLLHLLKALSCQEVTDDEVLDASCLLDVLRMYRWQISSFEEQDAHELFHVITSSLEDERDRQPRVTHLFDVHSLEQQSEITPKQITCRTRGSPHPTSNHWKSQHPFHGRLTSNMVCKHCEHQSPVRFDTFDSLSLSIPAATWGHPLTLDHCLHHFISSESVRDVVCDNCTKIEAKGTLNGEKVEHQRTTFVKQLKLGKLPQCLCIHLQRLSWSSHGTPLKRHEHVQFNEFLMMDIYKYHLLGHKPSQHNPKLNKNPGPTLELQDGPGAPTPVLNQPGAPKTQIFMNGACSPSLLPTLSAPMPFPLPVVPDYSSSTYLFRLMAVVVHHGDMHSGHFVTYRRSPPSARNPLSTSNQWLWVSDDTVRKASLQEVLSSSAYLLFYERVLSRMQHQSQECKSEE
Kind of series: USP30 biochemical IC50 assay. As to conditions: Examples of WO 2017/103614. The method, then: Dilution plates were prepared at 21 times the final concentration (2100 μM for a final concentration of 100 μM) in 50% DMSO in a 96-well polypropylene V-bottom plate (Greiner #651201). A typical 8-point dilution series would be 100, 30, 10, 3, 1, 0.3, 0.1, 0.03 μM final. Reactions were performed in duplicate in black 384 well plates (small volume, Greiner 784076) in a final reaction volume of 21 μl. Either 1 μl of 50% DMSO or diluted compound was added to the plate. USP30 was diluted in reaction buffer (40 mM Tris, pH 7.5, 0.005% Tween 20, 0.5 mg/ml BSA, 5 mM beta-mercaptoethanol) to the equivalent of 0.05 μl/well and 10 μl of diluted USP30 was added to the compound. Enzyme and compound were incubated for 30 min at room temp. Reactions were initiated by the addition of 50 nM of TAMRA labelled peptide linked to ubiquitin via an iso-peptide bond as fluorescence polarisation substrate. Reactions were read immediately after addition of substrate and following a 2-hour incubation at room temperature. Readings were performed on a Pherastar Plus (BMG Labtech). λ Excitation 540 nm; λ Emission 590 nm.

The test system of series [1] is Unilateral ureteral obstruction (UUO) kidney fibrosis. Kind of series: Unilateral ureteral obstructive kidney disease model (UUO). Type of series: in vivo. As to conditions: for In life mortality / collagen (picrosirius red staining): UUO. The text has this:
In this study, adult C57B16 female mice at 7 to 8 weeks of age with average weight of around 18 to 20 g were used. To complete the ureteral obstruction, the abdominal cavity was exposed via a midline incision and the left ureter was ligated at two points with 4-0 silk and dissected. Successful unilateral ureteral obstruction was later confirmed by observation of dilation of the renal pelvis due to hydronephrosis.
At harvest, mice were anesthetised and both kidneys were harvested; the contralateral kidney serves as control for the UUO kidney. The kidneys were dissected along median line into two parts, of which one side was fixed in formaldehyde, for paraffin embedding and the other was snap frozen for protein or RNA isolation.
Formalin fixed tissue were embedded in paraffin blocks and cut into 5 μm sections. All damaged kidneys, 5 contralateral kidneys from each group and 3 sham kidneys were analysed (in total n=80 kidney samples). Picrosirius Red and α-SMA stain was performed to evaluate fibrotic changes and myofibroblast activation. Analysis was performed by a pathology trained technical staff member, without knowledge of the animal group assignment. High magnification images were taken of each slide an analysed for the surface area covered by the stain.

Another series relates to diet-induced NAFLD/NASH. Description: Diet-induced model of NAFLD/NASH. The series is classed as in vivo, mice. As to conditions: 8 weeks. The method, then:
Mice were fed Amylin-diet (D09100301, Research Diets, US; 40% fat (18% trans-fat), 40% carbohydrate (20% fructose) and 2% cholesterol) for 37 weeks. Liver biopies were harvested and mice were randomization into treatment groups based on liver Colla1 quantification. Three weeks following biopsy surgery, study animals were dosed orally (P.O.) with either; Vehicle (0.5% HPMC/0.5% PVP/0.1% SDS nanosuspension), MT#1 @ 15 mg/kg QD or MT#1 @ […] QD […] or with Elafibranor @ 30 mg/kg QD (positive control) for eight (8) weeks. A control group of age- and sex-matched mice fed lean chow diet ad libitum were also administered vehicle (P.O) over the same 8 (eight) week period. Following the full dosing schedule, mice were sacrificed, whole livers resected and weighed, fixed in paraformaldehyde before being paraffin embedded. H&E stained slides were then prepared and the average % fractional area of lipid vacuoles (steatosis) determined for each section (@ 20×objective) using Visiomorph software (Visophram, Denmark). The average % fractional area was multiplied by the total liver weight to determine the total liver lipid content per animal. Values expressed as mean of n=9-12+SEM. Dunnett's test one-factor linear model. **: P<0.01, ***: P<0.001 compared to DIO-NASH Vehicle.
Summary of fibrosis stage scores of pre- and post-study liver biopsies harvested from the diet-induced NAFLD/NASH study. Fibrosis stage scores are determined by assessment of picosirius red stained liver sections for relative appearance and location of collagen staining, where; 0=No staining, 1=Perisinusoidal or periportal, 2=Perisinusoidal and periportal and […]=Bridging collagen staining observed. For each group of animals with higher (worsening), same or lower (improvement) in score at post-compared to pre-study is indicated by the height of the bar. One-sided Fisher's exact test with Bonferroni correction. No differences at significance level 0.05.

In series [2] the test system is Bleomycin-induced lung fibrosis. Kind of series: Bleomycin-induced lung fibrosis model. The settings on record: for In life mortality: oral, days 7 to 21, bleomycin 1.5 U/kg.
Experimental: Treatment group animals (n=10/group) received 1.5 U/kg of clinical bleomycin via oropharyngeal route on day 0 under inhalant anaesthesia. Animals were monitored for tolerance of the bleomycin administration procedure and subsequently bodyweights of all mice were recorded at least 3 times per week during the study. […] All treatments were administered orally.
At day 21, lungs were harvested from each animal and weighed, followed by fixation in 10% neutral buffered formalin (NBF) for histopathological analysis. The lung samples were processed and embedded with all lobes from each mouse in one paraffin block. Coronal sections through the four major lobes were stained with Masson's Trichrome. For each animal, consecutive lung fields were examined at 200×magnification in a raster pattern using a 20×objective lens and a 10×ocular lens. […] The Fibrotic Index was calculated as the sum of the modified Ashcroft field scores divided by the number of fields examined.

pIC50: −log10 of the molar value. “Also recorded” adds a separate entry of the source.

One may read the pIC50 as the negative decadic logarithm of the IC50, by convention in mol/L. The compound `N#Cc1cccc(-c2nnc(C(=O)NC[C@H]3CCN(C#N)C3)o2)c1` [Example 68, (R)-5-(3-cyanophenyl)-N-((1-cyanopyrrolidin-3-yl)methyl)-1,3,4-oxadiazole-2-carboxamide] gave a pIC50 at USP30 above 8.00. Further, the In life mortality is 10% in series [1] (5 mg/kg MT#1 nanosuspension BID PO, days 0 to 10); 0% in series [1] (15 mg/kg MT#1 nanosuspension BID PO, days 0 to 10); 10% in series [1] (50 mg/kg MT#1 nanosuspension BID PO, days 0 to 10); 10% in series [2] (5 mg/kg MT#1 nanosuspension BID); 10% in series [2] (15 mg/kg MT#1 nanosuspension BID); 0% in series [2] (50 mg/kg MT#1 nanosuspension BID). The “collagen (picrosirius red staining)” value in series [1] (15 mg/kg BID MT#1) and in series [1] (50 mg/kg BID MT#1) was “Statistically significant decreases” each time. In series [1] (UUO, 5, 15, 50 mg/kg BID PO, days 0 to 10), the “collagen deposition as measured by picrosirius red staining” value is “dose dependent decrease”. The “total liver lipid content, reduction” value in the series with diet-induced NAFLD/NASH (NASH animals, MT#1 15 mg/kg BID (P.O.), compared to DIO-NASH Vehicle) is “statistically significant”. Moreover, in the series with diet-induced NAFLD/NASH (NASH animals, P.O., dose dependence), the “total liver lipid content” value is on record as “dose-dependent reduction”. In addition, the liver steatosis entry in the series with diet-induced NAFLD/NASH (diet-induced NAFLD/NASH, P.O., Elafibranor 30 mg/kg QD) was “statistically significant reduction”. For the same compound, the “fibrotic stage scores (picosirius red stained liver sections, post- compared to pre-study biopsy)” value in the series with diet-induced NAFLD/NASH (diet-induced NAFLD/NASH, P.O., Elafibranor 30 mg/kg QD, listed as MT#1) was “Neither MT#1 or Elafibranor (positive control) significantly improved; also recorded: did not significantly improve”. Besides, the “fibrosis as assessed by the modified Ashcroft score, effect compared to vehicle” value in series [2] (50 mg/kg BID oral, one-way ANOVA + Tukey) is on record as “statistically significant effect compared to vehicle”. For the same compound, the “fibrosis as assessed by the modified Ashcroft score (collagen deposition, septae thickening)” value in series [2] (dose ranging 5, 15, 50 mg/kg BID oral, days 7 to 21, harvest day 21) is recorded as “dose dependent reduction”.
